Results reported in patent US8946215B2, “Hydroxy-substituted imidazo[1,2-a]pyridinecarboxamides and their use” (Bayer Pharma Aktiengesellschaft, priority 2012, dated 2015).
Where a name gives a salt, the structure may show the parent alone.

Target: T1, recombinant guanylate cyclase reporter cell line (Rattus norvegicus, UniProt P19686+P20595)
T1 construct: expressed in transfected cells
T1 sequence (P20595 1-619): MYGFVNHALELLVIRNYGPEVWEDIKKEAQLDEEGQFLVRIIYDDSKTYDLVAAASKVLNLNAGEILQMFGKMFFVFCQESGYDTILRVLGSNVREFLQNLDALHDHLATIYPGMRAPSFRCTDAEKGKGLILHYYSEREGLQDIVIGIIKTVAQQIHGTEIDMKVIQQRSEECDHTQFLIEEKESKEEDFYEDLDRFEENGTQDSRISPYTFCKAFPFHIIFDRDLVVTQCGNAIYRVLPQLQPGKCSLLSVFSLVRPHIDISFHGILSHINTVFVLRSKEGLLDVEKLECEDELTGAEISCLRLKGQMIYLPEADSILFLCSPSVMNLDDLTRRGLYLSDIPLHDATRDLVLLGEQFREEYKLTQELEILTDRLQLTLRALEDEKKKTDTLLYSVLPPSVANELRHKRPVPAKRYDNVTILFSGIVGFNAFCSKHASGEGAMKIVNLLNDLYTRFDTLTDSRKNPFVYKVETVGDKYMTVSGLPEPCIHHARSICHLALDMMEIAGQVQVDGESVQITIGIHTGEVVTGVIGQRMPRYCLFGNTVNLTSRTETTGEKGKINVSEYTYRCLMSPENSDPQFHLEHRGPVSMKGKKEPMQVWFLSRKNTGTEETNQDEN
T1 sequence (P19686 1-690): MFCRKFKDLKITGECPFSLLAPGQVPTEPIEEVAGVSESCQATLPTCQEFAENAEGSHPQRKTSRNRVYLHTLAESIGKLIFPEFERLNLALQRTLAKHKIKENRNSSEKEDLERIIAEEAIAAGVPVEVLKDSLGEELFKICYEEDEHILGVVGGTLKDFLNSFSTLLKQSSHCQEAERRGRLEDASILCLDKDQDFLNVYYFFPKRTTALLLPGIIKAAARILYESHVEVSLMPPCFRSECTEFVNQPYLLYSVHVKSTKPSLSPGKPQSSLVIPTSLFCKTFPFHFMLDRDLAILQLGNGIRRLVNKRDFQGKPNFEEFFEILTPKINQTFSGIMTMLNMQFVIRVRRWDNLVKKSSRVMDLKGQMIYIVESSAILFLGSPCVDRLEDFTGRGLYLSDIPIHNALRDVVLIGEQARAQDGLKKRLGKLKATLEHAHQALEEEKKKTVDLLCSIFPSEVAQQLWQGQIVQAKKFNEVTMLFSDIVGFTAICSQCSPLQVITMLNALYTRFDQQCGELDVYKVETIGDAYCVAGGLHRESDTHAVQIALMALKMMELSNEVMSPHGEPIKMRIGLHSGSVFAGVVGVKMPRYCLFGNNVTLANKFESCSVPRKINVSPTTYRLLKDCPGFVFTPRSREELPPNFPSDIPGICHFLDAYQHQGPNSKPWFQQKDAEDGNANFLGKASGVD
Test: Action on recombinant guanylate cyclase reporter cell line
Assay type: cell-based
Conditions: in some cases mean values obtained from individual determinations
Protocol: B-2. Action on Recombinant Guanylate Cyclase Reporter Cell Line
The cellular action of the compounds according to the invention is determined on a recombinant guanylate cyclase reporter cell line, as described in F. Wunder et al., Anal. Biochem. 339, 104-112 (2005).
Representative values (MEC=minimal effective concentration) for the compounds according to the invention are shown in the following table (in some cases as mean values obtained from individual determinations): […]

Row | MEC (minimal effective concentration) [µM] | SMILES
1 | 0.3 | Cc1nc2c(OCc3c(F)cccc3F)cccn2c1C(=O)NCCC1(O)CCCCC1 [Example 116, 8-[(2,6-difluorobenzyl)oxy]-N-[2-(1-hydroxycyclohexyl)ethyl]-2-methylimidazo[1,2-a]pyridine-3-carboxamide]
2 | 0.1 | Cc1nc2c(OCc3c(F)cccc3F)cccn2c1C(=O)N[C@@H](CO)C(C)C [Example 29]
3 | 0.03 | CCC[C@H](CO)NC(=O)c1c(C)nc2c(OCC3CCCCC3)cccn12 [Example 67, 8-(cyclohexylmethoxy)-N-[(2R)-1-hydroxypentan-2-yl]-2-methylimidazo[1,2-a]pyridine-3-carboxamide]
4 | 1 | Cc1cc(OCc2ncccc2F)c2nc(C)c(C(=O)NC(CC(F)(F)F)C(C)(C)O)n2c1 (racemic) [Example 184, rac-8-[(3-fluoropyridin-2-yl)methoxy]-2,6-dimethyl-N-(1,1,1-trifluoro-4-hydroxy-4-methylpentan-3-yl)imidazo[1,2-a]pyridine-3-carboxamide (racemate)]
5 | 0.03 | Cc1nc2c(OCc3c(F)cccc3F)cccn2c1C(=O)NC(CO)CC(F)(F)F (single isomer, unassigned; ent-8) [Example 121, ent-8-[(2,6-Difluorobenzyl)oxy]-2-methyl-N-(4,4,4-trifluoro-1-hydroxybutan-2-yl)imidazo[1,2-a]-pyridine-3-carboxamide]
6 | 0.3 | COCC(O)CNC(=O)c1c(C)nc2c(OCC3CCCCC3)cccn12 (stereo not drawn) [Example 79, 8-(cyclohexylmethoxy)-N-(2-hydroxy-3-methoxypropyl)-2-methylimidazo[1,2-a]pyridine-3-carboxamide]
7 | 0.1 | CC[C@H](CO)NC(=O)c1c(C)nc2c(OCC3CCCCC3)cccn12 [Example 72, 8-(cyclohexylmethoxy)-N-[(2R)-1-hydroxybutan-2-yl]-2-methylimidazo[1,2-a]pyridine-3-carboxamide]
8 | 3.0 | Cc1nc2c(OCc3c(F)cccc3F)cccn2c1C(=O)NCC(O)COc1ccc(F)cc1 (stereo not drawn) [Example 136, 8-[(2,6-difluorobenzyl)oxy]-N-[3-(4-fluorophenoxy)-2-hydroxypropyl]-2-methylimidazo[1,2-a]pyridine-3-carboxamide]
9 | 1.0 | Cc1nc2c(OCc3c(F)cccc3F)cccn2c1C(=O)NC1(CO)CCCC1 [Example 31]
10 | 0.1 | Cc1nc2c(OCc3c(F)cccc3F)cccn2c1C(=O)NC(CO)c1ccc(F)cc1 (racemic) [Example 103, rac-8-[(2,6-difluorobenzyl)oxy]-N-[1-(4-fluorophenyl)-2-hydroxyethyl]-2-methylimidazo[1,2-a]pyridine-3-carboxamide trifluoroacetate]
11 | 0.1 | Cc1nc2c(OCc3c(F)cccc3F)cccn2c1C(=O)NC(CO)CCC(F)(F)F (racemic) [Example 101, rac-8-[(2,6-difluorobenzyl)oxy]-2-methyl-N-(5,5,5-trifluoro-1-hydroxypentan-2-yl)-imidazo[1,2-a]pyridine-3-carboxamide trifluoroacetate]
12 | 3 | Cc1cc(OCc2ncccc2F)c2nc(C)c(C(=O)NC(CCCC(F)(F)C(F)(F)F)C(C)(C)O)n2c1 (single isomer, unassigned; ent-8) [Example 191, ent-8-[(3-fluoropyridin-2-yl)methoxy]-2,6-dimethyl-N-(7,7,8,8,8-pentafluoro-2-hydroxy-2-methyloctan-3-yl)imidazo[1,2-a]pyridine-3-carboxamide (enantiomer A)]
13 | 3.0 | C[C@@H](CO)NC(=O)c1cnc2c(OCC3CCCCC3)cccn12 [Example 59, 8-(cyclohexylmethoxy)-N-[(2S)-1-hydroxypropan-2-yl]imidazo[1,2-a]pyridine-3-carboxamide]
14 | 0.3 | Cc1nc2c(OCc3c(F)cccc3F)cccn2c1C(=O)NC[C@H](O)c1ccccc1 [Example 33]
15 | 10 | Cc1cccc(COc2cccn3c(C(=O)NC(CO)CO)c(C)nc23)c1Cl [Example 52, 8-[(2-chloro-3-methylbenzyl)oxy]-N-(1,3-dihydroxypropan-2-yl)-2-methylimidazo[1,2-a]-pyridine-3-carboxamide]
16 | 0.03 | CCCC[C@@H](NC(=O)c1c(C)nc2c(OCc3c(F)cccc3F)cccn12)C(C)O (stereo partly drawn) [Example 140, 8-[(2,6-Difluorobenzyl)oxy]-N-[(3R)-2-hydroxyheptan-3-yl]-2-methylimidazo[1,2-a]pyridine-3-carboxamide]
17 | 10 | Cc1nc2c(OCc3c(Cl)cccc3Cl)cccn2c1C(=O)NC(CO)CO [Example 53, 8-[(2,6-dichlorobenzyl)oxy]-N-(1,3-dihydroxypropan-2-yl)-2-methylimidazo[1,2-a]-pyridine-3-carboxamide]
18 | 1.0 | Cc1nc2c(OCC3CCCCC3)cccn2c1C(=O)NC(C)(C)C(C)O (stereo not drawn) [Example 87, 8-(cyclohexylmethoxy)-N-(3-hydroxy-2-methylbutan-2-yl)-2-methylimidazo[1,2-a]pyridine-3-carboxamide]
19 | 0.1 | CCCC[C@@H](NC(=O)c1c(C)nc2c(OCc3c(F)cccc3F)cccn12)C(C)(C)O [Example 147, 8-[(2,6-Difluorobenzyl)oxy]-N-[(3R)-2-hydroxy-2-methylheptan-3-yl]-2-methylimidazo[1,2-a]-pyridine-3-carboxamide]
20 | 0.01 | CCCC[C@H](CO)NC(=O)c1c(C)nc2c(OCc3c(F)cccc3F)cc(C)cn12 [Example 133, 8-[(2,6-difluorobenzyl)oxy]-N-[(2R)-1-hydroxyhexan-2-yl]-2,6-dimethylimidazo[1,2-a]pyridine-3-carboxamide]

Row | SMILES | MEC (minimal effective concentration) [µM]
21 | Cc1cc(OCCC(C(F)(F)F)C(F)(F)F)c2nc(C)c(C(=O)NC(CCCC(F)(F)F)C(C)(C)O)n2c1 (racemic) [Example 170, rac-2,6-Dimethyl-N-(7,7,7-trifluoro-2-hydroxy-2-methylheptan-3-yl)-8-[4,4,4-trifluoro-3-(trifluoromethyl)butoxy]imidazo[1,2-a]pyridine-3-carboxamide] | 3.0
22 | Cc1cc(OCCC(C(F)(F)F)C(F)(F)F)c2nc(C)c(C(=O)NCC(O)c3ccc(Cl)cc3)n2c1 (racemic) [Example 175, rac-N-[2-(4-chlorophenyl)-2-hydroxyethyl]-2,6-dimethyl-8-[4,4,4-trifluoro-3-(trifluoromethyl)butoxy]imidazo[1,2-a]pyridine-3-carboxamide] | 3.0
23 | CCCC[C@H](CO)NC(=O)c1c(C)nc2c(OCCC(C)C)cc(C)cn12 [Example 166, N-[(2R)-1-Hydroxyhexan-2-yl]-2,6-dimethyl-8-(3-methylbutoxy)imidazo[1,2-a]pyridine-3-carboxamide] | 1.0
24 | CCCCC(NC(=O)c1c(C)nc2c(OCCC(C)C)cc(C)cn12)C(C)(C)O (single isomer, unassigned) [Example 167, ent-N-(2-Hydroxy-2-methylheptan-3-yl)-2,6-dimethyl-8-(3-methylbutoxy)imidazo[1,2-a]pyridine-3-carboxamide] | 2.0
